Experimental data: patent US20040156869A1, “2-substituted quinazolin-4-ylamine analogues” (Neurogen Corporation, priority 2002, published 2004)

What follows are compounds tested against human capsaicin receptor (VR1) (Homo sapiens, UniProt Q8NER1) (assay: Capsaicin receptor binding assay ([3H]RTX competition, VR1-transfected HEK293 membranes)).
Sequence of human capsaicin receptor (VR1) (Q8NER1 whole entry): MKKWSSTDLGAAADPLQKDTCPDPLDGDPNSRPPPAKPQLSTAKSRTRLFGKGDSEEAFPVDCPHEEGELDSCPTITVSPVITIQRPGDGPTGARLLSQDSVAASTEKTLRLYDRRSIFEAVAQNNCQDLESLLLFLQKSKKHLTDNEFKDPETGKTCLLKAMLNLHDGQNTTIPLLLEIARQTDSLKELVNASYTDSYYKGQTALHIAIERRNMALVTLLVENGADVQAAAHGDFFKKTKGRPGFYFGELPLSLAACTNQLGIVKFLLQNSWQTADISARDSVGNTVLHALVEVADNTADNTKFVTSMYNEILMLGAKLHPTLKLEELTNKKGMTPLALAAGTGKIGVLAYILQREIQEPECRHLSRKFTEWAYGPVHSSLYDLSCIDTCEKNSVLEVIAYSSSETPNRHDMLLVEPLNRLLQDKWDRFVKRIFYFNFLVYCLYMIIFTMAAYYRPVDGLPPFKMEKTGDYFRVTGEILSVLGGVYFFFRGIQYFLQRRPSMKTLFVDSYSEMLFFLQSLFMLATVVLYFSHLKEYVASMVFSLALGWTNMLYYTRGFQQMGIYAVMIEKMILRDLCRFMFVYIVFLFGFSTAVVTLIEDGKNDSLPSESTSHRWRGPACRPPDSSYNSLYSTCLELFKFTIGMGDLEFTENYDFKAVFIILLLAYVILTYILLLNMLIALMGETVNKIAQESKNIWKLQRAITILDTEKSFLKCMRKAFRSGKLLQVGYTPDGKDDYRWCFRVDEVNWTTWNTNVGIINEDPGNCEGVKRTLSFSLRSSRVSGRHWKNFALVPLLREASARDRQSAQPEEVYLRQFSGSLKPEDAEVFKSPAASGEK

Ki, < 1 µM:
CC1CCCCN1Cc1nc(Nc2ccc(C(F)(F)F)nc2)c2ccc(-c3ncccc3C(F)(F)F)cc2n1 (stereo not drawn) [Compound 379, [2-(2-Methyl-piperidin-1-ylmethyl)-7-(3-trifluoromethyl-pyridin-2-yl)-quinazolin-4-yl]-(6-trifluoromethyl-pyridin-3-yl)-amine]
C=C(C)CN(CC)Cc1nc(Nc2ccc(C(F)(F)F)nc2)c2ccc(-c3ncccc3C(F)(F)F)cc2n1 [Compound 380, [2-{[Ethyl-(2-methyl-allyl)-amino]-methyl}-7-(3-trifluoromethyl-pyridin-2-yl)-quinazolin-4-yl]-(6-trifluoromethyl-pyridin-3-yl)-amine]
CN(Cc1nc(Nc2ccc(C(F)(F)F)nc2)c2ccc(-c3ncccc3C(F)(F)F)cc2n1)C1CCCCC1 [Compound 381, [2-[(Cyclohexyl-methyl-amino)-methyl]-7-(3-trifluoromethyl-pyridin-2-yl)-quinazolin-4-yl]-(6-trifluoromethyl-pyridin-3-yl)-amine]
CCC1CCCCN1Cc1nc(Nc2ccc(C(F)(F)F)nc2)c2ccc(-c3ncccc3C(F)(F)F)cc2n1 (stereo not drawn) [Compound 382, [2-(2-Ethyl-piperidin-1-ylmethyl)-7-(3-trifluoromethyl-pyridin-2-yl)-quinazolin-4-yl]-(6-trifluoromethyl-pyridin-3-yl)-amine]
CCN(Cc1nc(Nc2ccc(C(F)(F)F)nc2)c2ccc(-c3ncccc3C(F)(F)F)cc2n1)C1CCCCC1 [Compound 383, [2-[(Cyclohexyl-ethyl-amino)-methyl]-7-(3-trifluoromethyl-pyridin-2-yl)-quinazolin-4-yl]-(6-trifluoromethyl-pyridin-3-yl)-amine]
COCCN(CCOC)Cc1nc(Nc2ccc(C(F)(F)F)nc2)c2ccc(-c3ncccc3C(F)(F)F)cc2n1 [Compound 384, [2-{[Bis-(2-methoxy-ethyl)-amino]-methyl}-7-(3-trifluoromethyl-pyridin-2-yl)-quinazolin-4-yl]-(6-trifluoromethyl-pyridin-3-yl)-amine]
CCCCCN(CCCCC)Cc1nc(Nc2ccc(C(F)(F)F)nc2)c2ccc(-c3ncccc3C(F)(F)F)cc2n1 [Compound 385, [2-Dipentylaminomethyl-7-(3-trifluoromethyl-pyridin-2-yl)-quinazolin-4-yl]-(6-trifluoromethyl-pyridin-3-yl)-amine]
CCCCCCN(CCCCCC)Cc1nc(Nc2ccc(C(F)(F)F)nc2)c2ccc(-c3ncccc3C(F)(F)F)cc2n1 [Compound 386, [2-Dihexylaminomethyl-7-(3-trifluoromethyl-pyridin-2-yl)-quinazolin-4-yl]-(6-trifluoromethyl-pyridin-3-yl)-amine]
CC1CC(C)CN(Cc2nc(Nc3ccc(C(F)(F)F)nc3)c3ccc(-c4ncccc4C(F)(F)F)cc3n2)C1 (stereo not drawn) [Compound 387, [2-(3,5-Dimethyl-piperidin-1-ylmethyl)-7-(3-trifluoromethyl-pyridin-2-y)-quinazolin-4-yl]-(6-trifluoromethyl-pyridin-3-yl)-amine]
CC(c1ccccc1)N(C)CCc1nc(Nc2ccc(C(F)(F)F)cc2)c2ccc(-c3ncccc3C(F)(F)F)cc2n1 (stereo not drawn) [Compound 388, [2-{2-[Methyl-(1-phenyl-ethyl)-amino]-ethyl}-7-(3-trifluoromethyl-pyridin-2-yl)-quinazolin-4-yl]-(4-trifluoromethyl-phenyl)-amine]
CN(CCc1nc(Nc2ccc(C(F)(F)F)cc2)c2ccc(-c3ncccc3C(F)(F)F)cc2n1)C1CCc2ccccc21 (stereo not drawn) [Compound 389, [2-[2-(Indan-1-yl-methyl-amino)-ethyl]-7-(3-trifluoromethyl-pyridin-2-yl)-quinazolin-4-yl]-(4-trifluoromethyl-phenyl)-amine]
CCC(c1ccccc1)N(C)CCc1nc(Nc2ccc(C(F)(F)F)cc2)c2ccc(-c3ncccc3C(F)(F)F)cc2n1 (stereo not drawn) [Compound 390, [2-{2-[Methyl-(1-phenyl-propyl)-amino]-ethyl}-7-(3-trifluoromethyl-pyridin-2-yl)-quinazolin-4-yl]-(4-trifluoromethyl-phenyl)-amine]
CC1c2ccccc2CCN1CCc1nc(Nc2ccc(C(F)(F)F)cc2)c2ccc(-c3ncccc3C(F)(F)F)cc2n1 (stereo not drawn) [Compound 391, [2-[2-(1-Methyl-3,4-dihydro-1H-isoquinolin-2-yl)-ethyl]-7-(3-trifluoromethyl-pyridin-2-yl)-quinazolin-4-yl]-(4-trifluoromethyl-phenyl)-amine]
CN(CCc1nc(Nc2ccc(C(F)(F)F)cc2)c2ccc(-c3ncccc3C(F)(F)F)cc2n1)Cc1ccccc1 [Compound 392, [2-[2-(Benzyl-methyl-amino)-ethyl]-7-(3-trifluoromethyl-pyridin-2-yl)-quinazolin-4-yl]-(4-trifluoromethyl-phenyl)-amine]
FC(F)(F)c1ccc(Nc2nc(CCN3CCc4ccccc4C3)nc3cc(-c4ncccc4C(F)(F)F)ccc23)cc1 [Compound 393, [2-[2-(3,4-Dihydro-1H-isoquinolin-2-yl)-ethyl]-7-(3-trifluoromethyl-pyridin-2-yl)-quinazolin-4-yl]-(4-trifluoromethyl-phenyl)-amine]
CN(CCc1nc(Nc2ccc(C(F)(F)F)cc2)c2ccc(-c3ncccc3C(F)(F)F)cc2n1)Cc1cccc(F)c1 [Compound 394, [2-{2-[(3-Fluoro-benzyl)-methyl-amino]-ethyl}-7-(3-trifluoromethyl-pyridin-2-yl)-quinazolin-4-yl]-(4-trifluoromethyl-phenyl)-amine]
Cc1ccccc1CN(C)CCc1nc(Nc2ccc(C(F)(F)F)cc2)c2ccc(-c3ncccc3C(F)(F)F)cc2n1 [Compound 395, [2-{2-[Methyl-(2-methyl-benzyl)-amino]-ethyl}-7-(3-trifluoromethyl-pyridin-2-yl)-quinazolin-4-yl]-(4-trifluoromethyl-phenyl)-amine]
CN(CCc1nc(Nc2ccc(C(F)(F)F)cc2)c2ccc(-c3ncccc3C(F)(F)F)cc2n1)Cc1ccccc1F [Compound 396, [2-{2-[(2-Fluoro-benzyl)-methyl-amino]-ethyl}-7-(3-trifluoromethyl-pyridin-2-yl)-quinazolin-4-yl]-(4-trifluoromethyl-phenyl)-amine]
FC(F)(F)c1ccc(Nc2nc(CCN(Cc3ccccc3)C3CC3)nc3cc(-c4ncccc4C(F)(F)F)ccc23)cc1 [Compound 397, [2-[2-(Benzyl-cyclopropyl-amino)-ethyl]-7-(3-trifluoromethyl-pyridin-2-yl)-quinazolin-4-yl]-(4-trifluoromethyl-phenyl)-amine]
CN(CCc1ccccc1)CCc1nc(Nc2ccc(C(F)(F)F)cc2)c2ccc(-c3ncccc3C(F)(F)F)cc2n1 [Compound 398, [2-[2-(Methyl-phenethyl-amino)-ethyl]-7-(3-trifluoromethyl-pyridin-2-yl)-quinazolin-4-yl]-(4-trifluoromethyl-phenyl)-amine]
FC(F)(F)c1ccc(Nc2nc(CCN3CCCCC3)nc3cc(-c4ncccc4C(F)(F)F)ccc23)cc1 [Compound 399, [2-Piperidin-1-ylethyl-7-(3-trifluoromethyl-pyridin-2-yl)-quinazolin-4-yl]-(4-trifluoromethyl-phenyl)-amine]
